According to the supplement of paper PMC10307832:

Tests used:
Test in all cases: relative viability (nuclei count vs DMSO), 5 days (fraction); higher = more cells survive
[1] = compound: COCC[n+]1c2c(n(Cc3cnccn3)c1C)C(=O)c1ccccc1C2=O [YM155] + N=C(N)NC(=N)NCCc1ccccc1 [Phenformin] (partner 250 µM)
In short: (§1)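 Medians of duplicate plates are given as relative viability. That measure is the nuclei count in treated wells divided by the count in vehicle wells. Counts were taken on 4× images of lung cancer cell lines in 1536-well plates, 5 days after pin-tool dosing the day after seeding with one drug alone or a fixed anchor-drug dose plus five library-drug doses (not always all listed) in √10 steps.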

[2] = compound: CC(C)(C)c1cc(NC(=O)Nc2ccc(-c3cn4c(n3)sc3cc(OCCN5CCOCC5)ccc34)cc2)no1 [Quizartinib] + O=C(CCCCCCC(=O)Nc1ccccc1)NO [Vorinostat] (partner 1 µM)
In short: as §1

[3] = compound: COCC[n+]1c2c(n(Cc3cnccn3)c1C)C(=O)c1ccccc1C2=O [YM155] + NC(=O)Nc1cc(-c2cccc(F)c2)sc1C(=O)N[C@H]1CCCNC1 [AZD7762] (partner 0.2 µM)
In short: as §1

[4] = compound: CC(C)(C)c1cc(NC(=O)Nc2ccc(-c3cn4c(n3)sc3cc(OCCN5CCOCC5)ccc34)cc2)no1 [Quizartinib] + CC(C)C[C@H](NC(=O)[C@H](Cc1ccccc1)NC(=O)c1cnccn1)B(O)O [Bortezomib] (partner 0.002 µM)
In short: as §1

Cell Line | relative viability ([1]; first compound 0.002 µM) | relative viability ([1]; first compound 0.006325 µM) | relative viability ([1]; first compound 0.02 µM) | relative viability ([1]; first compound 0.06325 µM) | relative viability ([2]; first compound 0.001 µM) | relative viability ([2]; first compound 0.003162 µM) | relative viability ([2]; first compound 0.01 µM) | relative viability ([2]; first compound 0.03162 µM) | relative viability ([2]; first compound 0.1 µM) | relative viability ([3]; first compound 0.002 µM) | relative viability ([3]; first compound 0.006325 µM) | relative viability ([3]; first compound 0.02 µM) | relative viability ([3]; first compound 0.06325 µM) | relative viability ([4]; first compound 0.001 µM) | relative viability ([4]; first compound 0.003162 µM) | relative viability ([4]; first compound 0.01 µM) | relative viability ([4]; first compound 0.03162 µM) | relative viability ([4]; first compound 0.1 µM)
201T | 0.405 | 0.443 | 0.492 | 0.475 | 1 | 0.982 | 0.963 | 0.965 | 0.992 | 0.592 | 0.639 | 0.561 | 0.698 | 1.09 | 1.09 | 1.1 | 1.09 | 1.12
A549 | 0.17 | 0.0769 | 0.177 | 0.137 |  |  |  |  |  |  |  |  |  |  |  |  |  | 
A-427 | 0.314 | 0.39 | 0.365 | 0.333 | 0.609 | 0.757 | 0.818 | 0.767 | 0.874 | 0.741 | 0.793 | 0.752 | 0.312 | 0.911 | 0.952 | 1.06 | 1 | 1.01
ABC-1 | 0.271 | 0.239 | 0.233 | 0.207 |  | 1.24 | 0.963 | 0.793 | 1.65 | 0.66 | 0.84 | 0.47 | 0.195 | 0.283 | 0.232 | 0.299 | 0.28 | 0.262
BEN | 0.28 | 0.258 | 0.227 | 0.266 | 0.533 | 0.532 | 0.565 | 0.56 | 0.602 | 0.538 | 0.625 | 0.769 | 0.692 | 0.583 | 0.677 | 0.703 | 0.766 | 0.83
CAL-12T | 0.497 | 0.607 | 0.658 | 0.642 | 0.684 | 0.711 | 0.914 | 0.511 | 0.943 | 0.621 | 0.715 | 0.672 | 0.534 | 0.809 | 1.23 | 0.93 | 0.924 | 1.24
COR-L23 | 0.399 | 0.446 | 0.451 | 0.393 | 0.387 | 0.355 | 0.507 | 0.385 | 0.504 |  |  |  |  | 0.965 | 0.908 | 1.14 | 0.902 | 0.889
COR-L 105 | 0.343 | 0.462 | 0.508 | 0.581 | 0.266 | 0.793 | 0.871 |  | 0.881 |  |  |  |  | 0.64 | 0.632 | 0.634 | 0.632 | 0.617
Calu-6 |  |  |  |  |  |  |  |  |  |  |  |  |  | 0.924 | 0.991 | 1.02 | 0.811 | 1.07
ChaGo-K-1 | 0.469 | 0.488 | 0.519 | 0.578 |  | 0.709 | 0.758 | 0.719 | 0.773 | 0.847 | 0.822 | 0.915 | 0.821 | 0.693 | 1.16 | 1.06 |  | 1.28
EBC-1 |  |  |  |  |  |  |  |  |  |  |  |  |  | 0.524 | 0.505 | 0.561 | 0.495 | 0.466
EKVX | 0.239 | 0.218 | 0.24 | 0.231 |  | 0.815 | 0.631 | 0.69 | 0.634 | 0.591 | 0.723 | 0.747 | 0.483 | 0.892 | 0.938 | 1.01 | 1.13 | 1
EMC-BAC-2 | 0.463 | 0.514 | 0.542 | 0.568 | 0.433 | 0.486 | 0.288 |  | 0.544 | 1.04 | 1.15 | 1.07 | 0.785 | 0.986 | 1.14 | 0.985 | 0.857 | 1.05
EPLC-272H | 0.347 | 0.317 | 0.286 | 0.304 | 0.427 | 0.337 | 0.484 | 0.58 | 0.692 | 0.227 | 0.296 | 0.196 | 0.253 | 0.778 | 0.836 | 0.818 | 0.69 | 0.75
H3255 | 0.335 | 0.336 | 0.376 | 0.374 |  | 0.744 | 0.732 | 0.808 | 0.836 | 0.886 | 0.913 | 1.05 | 0.796 | 0.776 | 0.713 | 0.7 | 0.946 | 0.774
HARA | 0.476 | 0.444 | 0.48 | 0.425 | 0.468 | 0.47 | 0.553 | 0.677 | 0.426 |  | 0.542 | 0.521 | 0.499 | 0.931 | 1.11 | 1.15 | 1.07 | 1.17
IA-LM |  |  |  |  | 0.71 | 0.811 |  | 0.874 | 0.955 |  |  |  |  | 0.774 | 0.738 | 0.885 | 0.812 | 0.736
LK-2 | 0.356 | 0.571 | 0.447 | 0.379 | 0.179 | 0.185 | 0.306 | 0.315 | 0.294 | 0.445 | 0.305 | 0.494 | 0.438 |  |  |  |  | 
NCI-H358 | 0.325 | 0.315 | 0.37 | 0.351 | 0.733 | 0.572 | 0.803 |  | 0.815 |  | 0.523 | 0.437 | 0.281 |  |  |  |  | 
